The source of these data is patent publication US20260317324A1, “BIFUNCTIONAL COMPOUNDS FOR DEGRADING BRAF VIA UBIQUITIN PROTEOSOME PATHWAY” (Nurix Therapeutics, Inc., priority 2023, published 2026).

The structures appear in SMILES notation. Bounds are passed on as bounds.

What all share (type): cell-based
In one assay the target is T1, BRAF G469A (Homo sapiens, UniProt P15056, G469A).
T1 construct: Horizon Discovery (HCT-116 BRAF−/− cells); host or cells: HCT-116 BRAF−/− cells, clone 34, lentiviral transduction
T1 sequence (P15056 whole entry G469A): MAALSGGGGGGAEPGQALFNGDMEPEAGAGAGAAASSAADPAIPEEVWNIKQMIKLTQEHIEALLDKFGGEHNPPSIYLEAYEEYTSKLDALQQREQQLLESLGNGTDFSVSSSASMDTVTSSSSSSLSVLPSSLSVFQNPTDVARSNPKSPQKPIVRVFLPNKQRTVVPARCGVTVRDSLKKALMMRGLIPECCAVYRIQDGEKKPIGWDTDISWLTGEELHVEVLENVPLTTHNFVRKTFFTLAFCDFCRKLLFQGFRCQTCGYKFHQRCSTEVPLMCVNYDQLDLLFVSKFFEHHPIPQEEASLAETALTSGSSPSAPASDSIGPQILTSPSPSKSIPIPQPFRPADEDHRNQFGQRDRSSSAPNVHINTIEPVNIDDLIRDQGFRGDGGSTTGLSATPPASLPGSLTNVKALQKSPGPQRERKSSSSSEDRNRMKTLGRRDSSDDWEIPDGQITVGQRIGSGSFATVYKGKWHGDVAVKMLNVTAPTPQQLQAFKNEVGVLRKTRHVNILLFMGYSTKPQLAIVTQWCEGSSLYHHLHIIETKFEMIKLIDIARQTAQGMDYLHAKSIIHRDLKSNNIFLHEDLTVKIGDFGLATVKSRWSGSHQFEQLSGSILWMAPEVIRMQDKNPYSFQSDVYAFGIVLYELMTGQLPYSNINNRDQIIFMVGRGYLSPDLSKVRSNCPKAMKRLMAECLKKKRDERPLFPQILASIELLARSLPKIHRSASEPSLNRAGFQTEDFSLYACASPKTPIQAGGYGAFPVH
In words: BRAF HiBiT degradation assay, C-terminal HiBiT-tagged BRAF G469A overexpressed in HCT-116 BRAF−/− cells (clone 34), Nano-Glo HiBiT Lytic assay. The method, boiled down: (§1)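 Luminescence from the lytic HiBiT reagent, read after 10 min at room temperature, measured tagged BRAF remaining in lentivirally transduced HCT-116 BRAF−/− cells. Compounds were tested from 1 μM to 0.01 nM in half-log steps at 0.2% DMSO. DC50 values were fitted at 50% remaining.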
A general note: HiBiT is a short tag that completes a luciferase, so light tracks the accessible tagged protein.

Another assay has as its target T2, BRAF D594G (Homo sapiens, UniProt P15056, D594G).
T2 construct: Horizon Discovery (HCT-116 BRAF−/− cells); host or cells: HCT-116 BRAF−/− cells, clone 63, lentiviral transduction
Put plainly: BRAF HiBiT degradation assay, C-terminal HiBiT-tagged BRAF D594G overexpressed in HCT-116 BRAF−/− cells (clone 63), Nano-Glo HiBiT Lytic assay. The method, boiled down: as §1

Another assay concerns the target T3, BRAF G466V (Homo sapiens, UniProt P15056, G466V).
T3 construct: Horizon Discovery (HCT-116 BRAF−/− cells); host or cells: HCT-116 BRAF−/− cells, clone 8, lentiviral transduction
Put plainly: BRAF HiBiT degradation assay, C-terminal HiBiT-tagged BRAF G466V overexpressed in HCT-116 BRAF−/− cells (clone 8), Nano-Glo HiBiT Lytic assay. The method, boiled down: as §1

For the next assay, the target named is T4, BRAF V600E (Homo sapiens, UniProt P15056, V600E).
T4 construct: endogenous C-terminal HiBiT fusion tag on BRAF V600E allele; endogenous in cells; host or cells: A375 clone 1F10 (CRISPR-Cas9 knock-in of the HiBiT tag; parental A375 from ATCC)
T4 sequence (P15056 whole entry V600E, the tested form may be a part): as the sequence (P15056 whole entry G469A) above, with A469G, V600E counted along it
In words: BRAF HiBiT degradation assay, C-terminal HiBiT-tagged BRAF V600E A375 cells (clone 1F10), Nano-Glo HiBiT Lytic assay. The following applies: for Dmax: A-375. The method, boiled down: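 Endogenous BRAF V600E-HiBiT A375 (1F10), 10,000 cells/well, 24 h preculture; cpd 11-pt, 1 μM–0.01 nM half-log, n=2, 0.2% DMSO; HiBiT lytic detection 10 min RT; DC50 = fitted conc at Y=50; Obs. Dmax vs DMSO.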

The mark [1] stands for this setting: Class 2, BRAF G469A, DC50 at 50%: fitted conc. at Y=50.
Setting [2] is: HCT-116, Class 2, BRAF G469A, percentage protein degraded at maximal compound effect relative to DMSO.
[3] abbreviates: BRAF D594G, DC50 at 50%: fitted conc. at Y=50.
Setting [4] is: HCT-116, BRAF D594G, percentage protein degraded at maximal compound effect relative to DMSO.
[5] abbreviates: BRAF G466V, DC50 at 50%: fitted conc. at Y=50.
Setting [6] is: HCT-116, BRAF G466V, percentage protein degraded at maximal compound effect relative to DMSO.
Setting [7] is: A375 (BRAF V600E), DC50 at 50%: fitted conc. at Y=50.
The mark [8] stands for this setting: A375 (BRAF V600E), percentage protein degraded at maximal compound effect relative to DMSO.
Where [9] appears, read: BRAF G469A (Class 2), HCT-116 BRAF−/− cells, DC50 at 50% degradation.
The mark [10] stands for this setting: BRAF G469A (Class 2), HCT-116 BRAF−/− cells, observed Dmax relative to DMSO control.
Where [11] appears, read: BRAF D594G (Class 3), HCT-116 BRAF−/− cells, DC50 at 50% degradation.
The mark [12] stands for this setting: BRAF D594G (Class 3), HCT-116 BRAF−/− cells, observed Dmax relative to DMSO control.
[13] abbreviates: BRAF G466V (Class 3), HCT-116 BRAF−/− cells, DC50 at 50% degradation.
[14] abbreviates: BRAF G466V (Class 3), HCT-116 BRAF−/− cells, observed Dmax relative to DMSO control.
[15] abbreviates: A375 (BRAF V600E, Class 1), DC50 at 50% degradation.
Where [16] appears, read: A375 (BRAF V600E, Class 1), observed Dmax, % protein degraded relative to DMSO control.

T3 sequence (P15056 whole entry G466V): as the sequence (P15056 whole entry G469A) above, with G466V, A469G counted along it
T2 sequence (P15056 whole entry D594G): as the sequence (P15056 whole entry G469A) above, with A469G, D594G counted along it

On to `CCCS(=O)(=O)Nc1cccc(-c2nc(C3CCN(C(=O)C4CCN(C(=O)C5CCN(c6ccc(C7CCC(=O)NC7=O)cn6)CC5)CC4)CC3)sc2-c2ccncc2)c1F` (racemic) [Compound 210, Rac-N-[3-(2-{1-[1-(1-{5-[(3R)-2,6-dioxopiperidin-3-yl]pyridin-2-yl}piperidine-4-carbonyl)piperidine-4-carbonyl]piperidin-4-yl}-5-(pyridin-4-yl)-1,3-thiazol-4-yl)-2-fluorophenyl]propane-1-sulfonamide], for which the DC50 (as a rule, the concentration at which degradation of the target reaches its halfway point) on BRAF G469A (setting [1]) was 50 to 500 nM; at BRAF D594G (setting [3]) it was below 10 nM; on BRAF G466V (setting [5]), below 10 nM; on BRAF V600E (setting [7]), below 10 nM. In addition, the Dmax (usually the largest share of the target that was removed) at BRAF G469A (setting [2]) was 30 to 70%; on BRAF D594G (setting [4]), 30 to 70%; at BRAF G466V (setting [6]) it was 30 to 70%; at BRAF V600E (setting [8]), above 70%.
Consider `CCCS(=O)(=O)Nc1cccc(-c2nc(C3CCC4(CC3)CN(C(=O)CC3CCN(C5CCN(c6ccc7c(c6)C(=O)N(C6CCC(=O)NC6=O)C7=O)CC5)CC3)C4)sc2-c2ccnc(N)n2)c1F` (racemic) [Compound 247, Rac-N-{3-[5-(2-aminopyrimidin-4-yl)-2-{2-[2-(1′-{2-[(3R)-2,6-dioxopiperidin-3-yl]-1,3-dioxo-2,3-dihydro-1H-isoindol-5-yl}-[1,4′-bipiperidin]-4-yl)acetyl]-2-azaspiro[3.5]nonan-7-yl}-1,3-thiazol-4-yl]-2-fluorophenyl}propane-1-sulfonamide], for which the DC50 at BRAF G469A (setting [9]) is above 500 nM; at BRAF D594G (setting [11]), above 500 nM; on BRAF G466V (setting [13]), above 500 nM; at BRAF V600E (setting [15]) it was 10 to 50 nM. The Dmax at BRAF G469A (setting [10]) was below 30%; at BRAF D594G (setting [12]) it was 30 to 70%; at BRAF G466V (setting [14]), 30 to 70%; at BRAF V600E (setting [16]) it was above 70%.
As for `CCCS(=O)(=O)Nc1cccc(-c2nc(C(C)(C)C)sc2-c2ccnc(Nc3ccc(N4CCN(C(=O)C5CCN(c6ccc(C7CCC(=O)NC7=O)cc6)CC5)CC4)c(F)c3)n2)c1F` (racemic) [Compound 65, Rac-N-(3-{2-tert-butyl-5-[2-({4-[4-(1-{4-[(3R)-2,6-dioxopiperidin-3-yl]phenyl}piperidine-4-carbonyl)piperazin-1-yl]-3-fluorophenyl}amino)pyrimidin-4-yl]-1,3-thiazol-4-yl}-2-fluorophenyl)propane-1-sulfonamide], the 50% degradation concentration (DC50) at BRAF G469A (setting [1]) was above 500 nM; at BRAF D594G (setting [3]), above 500 nM; on BRAF G466V (setting [5]), above 500 nM; on BRAF V600E (setting [7]), below 10 nM. The Dmax at BRAF G469A (setting [2]) was 30 to 70%; at BRAF D594G (setting [4]) it was 30 to 70%; on BRAF G466V (setting [6]) it was 30 to 70%; on BRAF V600E (setting [8]), above 70%.
Regarding `O=C1CC[C@H](c2ccc(N3CCC(CN4CCN(c5ccc(-n6cc(-c7cc(C(F)F)cc(NS(=O)(=O)N8CCCC8)c7F)c(-c7ccncc7)n6)cc5)CC4)CC3)cc2)C(=O)N1` [Compound 349, N-[5-(difluoromethyl)-3-[1-(4-{4-[(1-{4-[(3R)-2,6-dioxopiperidin-3-yl]phenyl}piperidin-4-yl)methyl]piperazin-1-yl}phenyl)-3-(pyridin-4-yl)-1H-pyrazol-4-yl]-2-fluorophenyl]pyrrolidine-1-sulfonamide], the DC50 at BRAF G469A (setting [9]), on BRAF D594G (setting [11]), on BRAF G466V (setting [13]) and at BRAF V600E (setting [15]) was below 10 nM in each case. In addition, the maximal degradation (Dmax) on BRAF G469A (setting [10]), on BRAF D594G (setting [12]), at BRAF G466V (setting [14]) and on BRAF V600E (setting [16]) was above 70% in each case.
